# Data from publication PMC4503722, “Novel Phenotypic Outcomes Identified for a Public Collection of Approved Drugs from a Publicly Accessible Panel of Assays” (PLoS ONE, 2015).
# Like-named read-outs stand apart in the source and are kept apart here.
# Legend:
# [1] = test system: endothelial tube formation in co-cultures of ECFCs and ADSCs treated with VEGF; experiment: cells; format: cell-based, human
# [2] = test system: NCI-H716 cells; experiment: cells; format: cell-based, Human
# [3] = test system: STC-1 cell line; format: cell-based, mouse
# [4] = test system: HeLa cells; experiment: cells; format: cell-based
# [5] = test system: DLD-1; experiment: cells; format: cell-based
# [6] = test system: SW480; experiment: cells; format: cell-based
# [7] = test system: HCT116; experiment: cells; format: cell-based
# [8] = test system: Colo320; experiment: cells; format: cell-based
# [9] = test system: HT-29; experiment: cells; format: cell-based
# [10] = test system: RKO; experiment: cells; format: cell-based
# [11] = test system: SNU-C1; experiment: cells; format: cell-based
# [12] = test system: ECFC/ADSC co-culture cell nuclei number
# [13] = test system: HCT116 cells treated with a GSK3β inhibitor; experiment: cells; format: cell-based; conditions: for GSK3b inh pretreated_Viability ATP HCT116 IC50/EC50: assay number 26, GSK3b inhibitor pretreated
SMILES,VEGF_ADSC\ECFC Angio CD31 TubeArea IC50/EC50 [1] [µM],VEGF_ADSC\ECFC Angio Hoechst NucArea IC50/EC50 [12] [µM],hNCI-H716 GLP1 Secretion IC50/EC50 ([2]; assay number 12) [µM],mSTC-1 GLP1 Secretion IC50/EC50 ([3]; assay number 13) [µM],"Basal_Viability ATP HCT116 IC50/EC50 ([7]; assay number 25, basal) [µM]",GSK3b inh pretreated_Viability ATP HCT116 IC50/EC50 [13] [µM],Basal_Viability ATP DLD-1 IC50/EC50 ([5]; assay number 23) [µM],Basal_Viability ATP SW480 IC50/EC50 ([6]; assay number 24) [µM],Basal_Viability ATP Colo 320 IC50/EC50 ([8]; assay number 27) [µM],Basal_Viability ATP HT-29 IC50/EC50 ([9]; assay number 28) [µM],Basal_Viability ATP RKO IC50/EC50 ([10]; assay number 29) [µM],Basal_Viability ATP SNU-C1 IC50/EC50 ([11]; assay number 30) [µM],other results
CCc1oc2ccccc2c1C(=O)c1cc(Br)c(O)c(Br)c1 [NCGC00013895-08],> 10,> 10,–,–,–,–,–,–,–,–,–,–,hNCI-H716 GLP1 Secretion IC50/EC50 [2]: > 40 µM; mSTC-1 GLP1 Secretion IC50/EC50 [3]: > 40 µM; Hela CellCycMod PI 2N IC50/EC50 [4]: > 10 µM; Hela CellCycMod PI 4N IC50/EC50 [4]: > 10 µM; Hela CellCycMod PI Cell Number IC50/EC50 [4]: > 10 µM; Hela CellCycMod PI MI IC50/EC50 [4]: > 10 µM; Hela CellCycMod PI S Phase IC50/EC50 [4]: > 10 µM; Basal_Viability ATP DLD-1 IC50/EC50 [5]: 0.2675 µM; Basal_Viability ATP SW480 IC50/EC50 [6]: 1.7408 µM; Basal_Viability ATP HCT116 IC50/EC50 [7]: 1.057 µM; Basal_Viability ATP Colo 320 IC50/EC50 [8]: > 20 µM; Basal_Viability ATP HT-29 IC50/EC50 [9]: 1.1416 µM; Basal_Viability ATP RKO IC50/EC50 [10]: 0.1312 µM; Basal_Viability ATP SNU-C1 IC50/EC50 [11]: 0.1053 µM
C[C@@H]1CN(CCCn2c3ccccc3c3ccccc32)C[C@H](C)N1 [NCGC00025187-02],–,–,6.3711,> 40,10.5492,3.848,–,–,–,–,–,–,"Basal_Viability ATP DLD-1 IC50/EC50 ([5]; assay number 23, basal): 9.7994 µM; Basal_Viability ATP SW480 IC50/EC50 ([6]; assay number 24, basal): 2.353 µM; Basal_Viability ATP Colo 320 IC50/EC50 ([8]; assay number 27, basal): 15.9001 µM; Basal_Viability ATP HT-29 IC50/EC50 ([9]; assay number 28, basal): 4.021 µM; Basal_Viability ATP RKO IC50/EC50 ([10]; assay number 29, basal): 2.184 µM; Basal_Viability ATP SNU-C1 IC50/EC50 ([11]; assay number 30, basal): 6.023 µM"
O=C(Nc1ccc(Oc2ccc(Cl)cc2)c(Cl)c1)c1cc(I)cc(I)c1O [NCGC00160556-02],> 10,6.571,–,–,–,–,–,–,–,–,–,–,hNCI-H716 GLP1 Secretion IC50/EC50 [2]: > 40 µM; mSTC-1 GLP1 Secretion IC50/EC50 [3]: 1.3019 µM; Basal_Viability ATP DLD-1 IC50/EC50 [5]: 0.0084 µM; Basal_Viability ATP SW480 IC50/EC50 [6]: 0.0108 µM; Basal_Viability ATP HCT116 IC50/EC50 [7]: 0.01695 µM; Basal_Viability ATP Colo 320 IC50/EC50 [8]: 0.054 µM; Basal_Viability ATP HT-29 IC50/EC50 [9]: 0.0095 µM; Basal_Viability ATP RKO IC50/EC50 [10]: 0.0303 µM; Basal_Viability ATP SNU-C1 IC50/EC50 [11]: 0.0143 µM
COCC(=O)O[C@]1(CCN(C)CCCc2nc3ccccc3[nH]2)CCc2cc(F)ccc2[C@@H]1C(C)C [NCGC00161420-06],> 10,> 10,> 40,8.237,12.3743,5.3311,7.2629,4.5426,10.5076,3.0782,6.7187,5.4372,–
OCCN1CCN(CC/C=C2/c3ccccc3Sc3ccc(C(F)(F)F)cc32)CC1 [NCGC00162179-08],–,–,–,–,–,–,–,–,–,–,–,–,"IC50/EC50, hNCI-H716 GLP1 Secretion (assay number 12) ([2]; concentration response): 32.1555 µM; IC50/EC50, mSTC-1 GLP1 Secretion (assay number 13) ([3]; concentration response): > 40 µM; IC50/EC50, Basal_Viability ATP DLD-1 (assay number 23) ([5]; basal): 1.467 µM; IC50/EC50, Basal_Viability ATP SW480 (assay number 24) ([6]; basal): 3.928 µM; IC50/EC50, Basal_Viability ATP HCT116 (assay number 25) ([7]; basal): 4.577 µM; IC50/EC50, GSK3b inh pretreated_Viability ATP HCT116 (assay number 26) ([13]; GSK3b inh pretreated): 2.894 µM; IC50/EC50, Basal_Viability ATP Colo 320 (assay number 27) ([8]; basal): 2.3138 µM; IC50/EC50, Basal_Viability ATP HT-29 (assay number 28) ([9]; basal): 1.808 µM; IC50/EC50, Basal_Viability ATP RKO (assay number 29) ([10]; basal): 0.3178 µM; IC50/EC50, Basal_Viability ATP SNU-C1 (assay number 30) ([11]; basal): 1.035 µM"
CCCCCCCCCCCCCCCC[N+](C)(C)CC.[Br-] [NCGC00166120-02],1.1378,7.579,11.7347,> 40,3.1595,2.6825,–,–,–,–,–,–,"Basal_Viability ATP DLD-1 IC50/EC50 ([5]; assay number 23, basal): 0.7403 µM; Basal_Viability ATP SW480 IC50/EC50 ([6]; assay number 24, basal): 1.2387 µM; Basal_Viability ATP Colo 320 IC50/EC50 ([8]; assay number 27, basal): 0.0372 µM; Basal_Viability ATP HT-29 IC50/EC50 ([9]; assay number 28, basal): 0.4091 µM; Basal_Viability ATP RKO IC50/EC50 ([10]; assay number 29, basal): 0.9309 µM; Basal_Viability ATP SNU-C1 IC50/EC50 ([11]; assay number 30, basal): 0.004 µM"
Clc1ccc(CCC(Cn2ccnc2)Sc2c(Cl)cccc2Cl)cc1 (stereo not drawn) [NCGC00179596-03],3.5313,6.743,15.9807,6.9953,2.0642,0.8414,1.8367,1.6936,0.2211,3.009,2.3045,0.9956,–
Clc1ccc(C(Cn2ccnc2)OCc2c(Cl)cccc2Cl)c(Cl)c1 (stereo not drawn) [NCGC00179642-03],–,–,> 40,> 40,1.5939,1.3984,2.3554,2.6011,1.8168,5.0032,4.0107,0.8861,–
Cl.Oc1ccc([C@H]2CNCc3c2ccc(O)c3O)cc1O [NCGC00183049-01],–,–,5.9462,> 20,> 20,0.1876,> 20,> 20,0.4662,> 20,0.03316,> 20,"Hela CellCycMod PI 2N IC50/EC50 ([4]; assay number 14, 2N): > 10 µM; Hela CellCycMod PI S Phase IC50/EC50 ([4]; assay number 15, S phase): > 10 µM; Hela CellCycMod PI 4N IC50/EC50 ([4]; assay number 16, 4N): > 10 µM; Hela CellCycMod PI MI IC50/EC50 ([4]; assay number 17, MI): > 10 µM; Hela CellCycMod PI Cell Number IC50/EC50 ([4]; assay number 18, cell number): > 10 µM"
